Data taken from EP0775133B1, “NAPHTHALENE AMIDES HAVING LEUKOTRIENE-ANTAGONISTIC ACTION” (LABORATORIOS MENARINI S.A., priority 1994, dated 1996).
Counter-ions that a name gives are not always drawn.

Columns and labels:
[1] = tested on: mienteric plexus of guinea-pig isolated ileum; experiment: Inhibition of LTD4-induced contractions in the mienteric plexus of guinea-pig isolated ileum; conditions: LTD4 3 nM, compound incubated 2.5 minutes
Method: Inhibition test of the contractions induced by LTD4 in the mienteric plexus of quinea-pig isolated ileum.
The antagonistic activity of the compounds of the present invention in the isolated organ was evaluated as its ability to inhibit the contraction caused by LTD4 in the mienteric plexus of the ileum of Dunkin Hartley male albino guinea-pig, weighing 300-350 g (Cristol J.P. and Sirois P. Res. Commun. Chem. Pathol., 59, 423 (1988)).
The mienteric plexus is extracted from a 2-3 cm segment of the terminal portion of the guinea-pig ileum, previously sacrificed by cervical dislocation. The plexus is put, at a tension of 0.5 g, in a 5 ml organ bath, containing a solution of Tyrode (137 mM NaCl, 2.7 mM KCl, 1.4 mM CaCl2, 0.4 mM NaH2PO4, 11.9 mM NaHCO3, 0.8 mM MgSO4, 5.5 mM glucose), saturated with carbogen gas (95% 02-5% CO2) at 37°C. The solution also contains indomethacin (3.3 µM) and atropine (0.4 µM) to remove the action of the intrinsic prostaglandins and the cholinergic responses.
After a 45 minute stabilization period a maximum isotonic response is obtained (100% contractile response) adding to the bath chamber the LTD4 agonist (3 nM). This process is repeated until the same contraction response is obtained twice. The […] measures are made in an isotonic transducer.
After stabilization is restored, the product under test is incubated at different concentrations (dissolved in 0.1% final concentration DMSO) for 2.5 minutes, and after that the contraction with LTD4 is induced again.
The antagonistic activity is expressed as IC50, the concentration of compound which reduces by 50% the maximum contraction.

LTD4 receptors = target: T1, LTD4 receptors (Cavia porcellus, UniProt Q2NNR5); experiment: [3H]-LTD4 receptor binding inhibition test in guinea-pig lung membranes; conditions: 0.5 nM [3H]-LTD4, 30 minutes at 25°C, Cheng-Prusoff
T1 construct: Guinea pig lung membranes, containing the LTD4 receptors; from tissue; host or cells: guinea-pig lung membranes
T1 sequence (Q2NNR5 1-340): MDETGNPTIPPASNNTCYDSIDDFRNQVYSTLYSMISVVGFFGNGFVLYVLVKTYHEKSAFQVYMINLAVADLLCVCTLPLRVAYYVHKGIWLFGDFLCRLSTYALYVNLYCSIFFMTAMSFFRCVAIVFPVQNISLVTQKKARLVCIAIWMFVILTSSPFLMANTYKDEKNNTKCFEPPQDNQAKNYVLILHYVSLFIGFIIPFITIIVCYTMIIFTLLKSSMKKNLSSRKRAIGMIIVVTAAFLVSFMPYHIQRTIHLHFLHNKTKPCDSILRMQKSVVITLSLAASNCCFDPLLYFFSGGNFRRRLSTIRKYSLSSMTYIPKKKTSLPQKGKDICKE
Method: [^3H]-LTD4 receptor binding inhibition test in quinea-pig lung membranes
These purified membranes (150 µg/ml) are added to an incubation mixture containing 10 mM of PIPES buffer (piperazin-N,N'-bis(2-ethanesulfonic acid) (pH 7.4), 10 mM of CaCl2, 10 mM of 5 MgCl2, 2 mM of cysteine, 2 mM of glycine, 0.5 nM of [^3H]-LTD4 (4700-6400 GBq/mmol) and different concentrations of the product under test in a final volume of 310 µl. The reaction mixture is incubated for 30 minutes at 25°C.
The radioligand bound to the membranes is separated from the free one by dilution with 4 ml washing buffer (10 mM Tris-HCl (pH 7.4) and 100 mM NaCl) at 0°C and filtration with Whatman GF/B filters, by means of a Brandel Cell Harvester. The filters are washed 4 times with a total volume of 16 ml of washing buffer at 0°C. The radioactivity present in the filters is determined by liquid scintillation.
The specific binding is defined as the difference between the total binding of [^3H]-LTD4 and the nonspecific binding determined in the presence of 1 µM LTD4.

SMILES	IC50 [1] [nM]	Ki (LTD4 receptors) [nM]
O=C(O)CCCc1ccc(NC(=O)c2ccc3ccc(OCc4ccc5ccccc5n4)cc3c2)cc1 [Example 26, 4-[4-[[7-(2-quinolinylmethoxy)-2-naphthyl]carboxamido]phenyl]butanoic acid]	38	
CC(C(=O)Nc1ccc(Cc2nn[nH]n2)cc1)c1ccc2cc(OCc3ccc4ccccc4n3)ccc2c1 (centres unmarked) [Example 6, N-[4-(1H-5-tetrazolyl)methylphenyl]-2-[6-(2-quinolinylmethoxy)-2-naphthyl]propanamide (sodium salt)]	> 100	32.7 ± 3
O=C(O)CCCc1ccc(NC(=O)c2ccc3cc(OCc4ccc5ccccc5n4)ccc3c2)cc1 [Example 23, 4-[4-[[6-(2-quinolinylmethoxy)-2-naphthyl]carboxamido]phenyl]butanoic acid]	> 100	30 ± 1.2
CC(C(=O)Nc1ccc(Cc2nnn[nH]2)cc1)c1ccc2cc(OCc3ccc4ccccc4n3)ccc2c1 (centres unmarked) [Example 5, N-[4-(1H-5-tetrazolyl)methylphenyl]-2-[6-(2-quinolinylmethoxy)-2-naphthyl]propanamide]	> 100	34 ± 5
CC(C(=O)NCc1ccccc1-c1nnn[nH]1)c1ccc2cc(OCc3ccc4ccccc4n3)ccc2c1 (centres unmarked) [Example 3, N-[2-(1H-5-tetrazolyl)phenylmethyl]-2-[6-(2-quinolinylmethoxy)-2-naphthyl]propanamide]	18	12 ± 3
O=C(O)c1ccc(CCNC(=O)c2ccc3ccc(OCc4ccc5ccccc5n4)cc3c2)cc1 [Example 29, 4-[2-[[7-(2-quinolinylmethoxy)-2-naphthyl]carboxamido]ethyl]benzoic acid]	8	1 ± 0.1
CC(C(=O)NCc1cccc(-c2nnn[nH]2)c1)c1ccc2cc(OCc3ccc4ccccc4n3)ccc2c1 (centres unmarked) [Example 2, N-[3-(1H-5-tetrazolyl)phenylmethyl]-2[6-(2-quinolinylmethoxy)-2-naphthyl]propanamide]	66	29.5 ± 3
CC(C(=O)Nc1ccc(CCCC(=O)O)cc1)c1ccc2cc(OCc3ccc4ccccc4n3)ccc2c1 (centres unmarked) [Example 10, 4-[4-[2-[6-(2-quinolinylmethoxy)-2-naphthyl]propanamido]phenyl]butanoic acid]	> 100	38.5 ± 6.3
CC(C(=O)NCc1ccc(-c2nnn[nH]2)cc1)c1ccc2cc(OCc3ccc4ccccc4n3)ccc2c1 (centres unmarked) [Example 1, N-[4-(1H-5-tetrazolyl)phenylmethyl]-2-[6-(2-quinolinylmethoxy)-2-naphthyl]propanamide]	13	

Now from value to compound:

IC50 [1] [nM]	Ki (LTD4 receptors) [nM]	SMILES
24		O=C(NCCc1ccc(-c2nnn[nH]2)cc1)c1ccc2ccc(OCc3ccc4ccccc4n3)cc2c1 [Example 30, N-[4-(1H-5-tetrazolyl)phenylethyl]-7-(2-quinolinylmethoxy)-2-naphthalenecarboxamide]
28	7.8 ± 2	O=C(NCc1ccc(-c2nnn[nH]2)cc1)c1ccc2ccc(OCc3ccc4ccccc4n3)cc2c1 [Example 27, N-[4-(1H-5-tetrazolyl)phenylmethyl]-7-(2-quinolinylmethoxy)-2-naphthalenecarboxamide]
87	13.1 ± 2	O=C(NCCCc1ccc(-c2nnn[nH]2)cc1)c1ccc2ccc(OCc3ccc4ccccc4n3)cc2c1 [Example 33, N-[4-(1H-5-tetrazolyl)phenylpropyl]-7-(2-quinolinylmethoxy)-2-naphthalenecarboxamide]
	190 ± 21	CC(C(=O)Nc1ccc(CCCC(=O)O)cc1)c1ccc2cc(OCc3ccc4ccc(Cl)cc4n3)ccc2c1 (centres unmarked) [Example 20, 4-[4-[2-[6-[(7-chloro-2-quinolinyl)-methoxy]-2-naphthyl]propanamido]phenyl]butanoic acid]
	134 ± 18	CC(C(=O)Nc1cccc(CC(=O)O)c1)c1ccc2cc(OCc3ccc4ccccc4n3)ccc2c1 (centres unmarked) [Example 18, 3-[2-[6-(2-Quinolinylmethoxy)-2-naphthyl]propanamido]phenylacetic acid]
	44 ± 15	O=C(O)CCCc1ccc(C(=O)NCc2ccc3cc(OCc4ccc5ccccc5n4)ccc3c2)cc1 [Example 32, 4-[4-[[6-(2-quinolinylmethoxy)-2-naphthyl]methylaminocarbonyl]phenyl]butanoic acid]
	28 ± 3	O=C(NCc1cccc(-c2nnn[nH]2)c1)c1ccc2cc(OCc3ccc4ccccc4n3)ccc2c1 [Example 24, N-[3-(1H-5-tetrazolyl)phenylmethyl]-6-(2-quinolinylmethoxy)-2-naphthalenecarboxamide]
75	68 ± 5	CC(C(=O)NCc1cccc(C(=O)O)c1)c1ccc2cc(OCc3ccc4ccccc4n3)ccc2c1 (centres unmarked) [Example 14, 3-[2-[6-(2-quinolinylmethoxy)-2-naphthyl]propanamidomethyl]benzoic acid]
6	5.5 ± 0.5	O=C(Cc1ccc2cc(OCc3ccc4ccccc4n3)ccc2c1)NCc1ccc(-c2nnn[nH]2)cc1 [Example 21, N-[4-(1H-5-tetrazolyl)phenylmethyl]-6-(2-quinolinylmethoxy)-2-naphthaleneacetamide]
